Structures can show the parent of a compound that is named as a salt.
Assays:
[1] = target: T1, cloned human 5-HT2A receptor (Homo sapiens, UniProt P28223); assay: Human 5-HT2A receptor binding assay; conditions: [3H]ketanserin (1 nM) displacement, CHO-K1 cell membranes; read-out: 5-HT2A pKi (converted)
T1 construct: purchased Euroscreen; host or cells: CHO-K1
Description: (§1) The binding affinity of ligands for human 5-HT2A and 5-HT2C receptors was determined using the following assay.
Membrane preparations from CHO-K1 cells expressing the cloned human 5-HT2A receptor were obtained (Euroscreen). The membranes were thawed rapidly and diluted in assay buffer containing Tris-HCl (50 mM, pH 7.7). The membranes were resuspended by homogenisation, prior to adding 15 μg of membranes to assay wells containing [3H]ketanserin (1 nM), assay buffer (50 mM Tris at pH 7.4) containing pargyline (10 μM), and test compounds (1×10^−10 to 1×10^−4M). Non specific binding was determined in the presence of 100 μM mianserin. After 15 minutes incubation at 37° C., the assay mixture was filtered through a combination of GF-C and GF-B filters, pre-soaked in 0.05% Brij, using a Brandel cell harvester, and were washed three times using ice cold Tris-HCl buffer (50 mM). Radioactivity retained on the filters was determined by liquid scintillation counting. For each test compound, the concentration that inhibited binding of [^3H]ketanserin by 50% was determined using curve fitting software (Prism). Kd values (concentration of ketanserin required to occupy 50% of the receptor binding sites at equilibrium) determined from saturation binding studies were then used to calculate inhibition dissociation constants (Ki) using the following equation: […]

[2] = target: T2, human cloned 5-HT2B receptors (Homo sapiens, UniProt P41595); assay: Human cloned 5-HT2B receptor binding assay; conditions: [3H]LSD (1 nM) displacement, membranes of CHO-K1 cells expressing cloned 5-HT2B receptor; read-out: 5-HT2B pKi (converted)
T2 construct: expressed in transfected cells; host or cells: CHO-K1
Description: The binding affinity of the compounds for human cloned 5-HT2B receptors was determined using the following assay.
CHO-K1 cells expressing cloned 5-HT2B receptor were maintained in Ultra-CHO medium containing 400 μg/ml of G418, 100 U/ml penicillin, 100 μg/ml streptomycin, 2.5 μg/ml fungizone and 1-foetal bovine serum, in 95/5% O2/CO2 at 37° C. The cells were harvested using 0.25% trypsin and were centrifuged at 800 rpm for 8 minutes. The cells were homogenised in 50 mM HEPES buffer containing 1 mM disodium EDTA and 1 mM PMSF at pH 7.4, using a Dounce homogeniser (20 strokes). The homogenate was centrifuged at 2280 rpm (1000 g) and 4° C. for 10 minutes, after which the supernatant was removed by decanting. The pellet was re-homogenised as above, and the resulting supernatant removed and combined with that already obtained. The supernatant solution was then centrifuged at 18300 rpm (40000 g) for 10 minutes at 4° C. using a Sorvall centrifuge. The supernatant was removed, and the pellet was re-suspended in 50 mM buffer at pH 7.4 using a Ultra-turrax T25 Polytron, before centrifugation again at 40000 g as above. This wash procedure was repeated, after which the membrane preparation was stored at a concentration of 1 mg/ml at −80° C. until use.
The membranes were thawed rapidly and diluted in assay buffer containing Tris-HCl (50 mM, pH 7.4), ascorbic acid (0.1°) and calcium chloride (4 mM). The membranes were homogenised to resuspend them, prior to adding 10 or 15 μg of membranes to assay wells containing [^3H]LSD (1 nM), assay buffer (50 mM Tris, 4 mM calcium chloride and 0.1° ascorbic acid) containing pargyline (10 μM), and the test compounds (1×10^−10 to 1×10^−4M). Non specific binding was determined in the presence of 100 μM 5-HT. After 30 minutes incubation at 37° C., the assay mixture was filtered through a combination of GF-C and GF-B filters, pre-soaked in 1% polyethyleneimine, using a Brandel cell harvester, and were washed three times using 50 mM Tris-HCl. Radioactivity retained on the filters was determined by liquid scintillation counting. For each test compound, the concentration that inhibited binding of [^3H]LSD by 50% was determined using curve fitting software (Prism). Kd values (concentration of LSD required to occupy 50% of the receptor binding sites at equilibrium) determined from saturation binding studies were then used to calculate inhibition dissociation constants (Ki) using the following equation: […]
This approach follows that set out in Kenakin, T. P. Pharmacologic analysis of drug-receptor interaction. Raven Press, New York, 2nd Edition.

[3] = target: T3, cloned human 5-HT2C receptor (Homo sapiens, UniProt P28335); assay: Human 5-HT2C receptor binding assay; conditions: [3H]mesulergine (1 nM) displacement, CHO-K1 cell membranes; read-out: 5-HT2C pKi (converted)
T3 construct: purchased Euroscreen; host or cells: CHO-K1
T3 sequence (P28335 33-458): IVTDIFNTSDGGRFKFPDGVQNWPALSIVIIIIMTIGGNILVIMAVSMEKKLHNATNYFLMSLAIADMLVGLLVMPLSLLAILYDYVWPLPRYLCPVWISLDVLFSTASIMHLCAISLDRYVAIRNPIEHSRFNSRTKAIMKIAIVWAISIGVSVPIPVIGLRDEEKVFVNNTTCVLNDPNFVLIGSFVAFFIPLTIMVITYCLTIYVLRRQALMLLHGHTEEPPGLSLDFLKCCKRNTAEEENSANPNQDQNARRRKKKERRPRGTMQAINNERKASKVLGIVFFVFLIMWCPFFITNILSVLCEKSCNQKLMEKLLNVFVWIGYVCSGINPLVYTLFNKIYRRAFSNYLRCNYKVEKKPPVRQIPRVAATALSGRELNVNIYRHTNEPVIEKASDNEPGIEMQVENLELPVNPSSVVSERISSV
Description: as §1
Membrane preparations from CHO-K1 cells expressing the cloned human 5-HT2C receptor were obtained (Euroscreen). The membranes were thawed rapidly and diluted in assay buffer containing Tris-HCl (50 mM, pH 7.7), ascorbic acid (0.1%) and pargyline (10 μM). The membranes were resuspended by homogenisation, prior to adding 6 μg of membranes to assay wells containing [^3H]mesulergine (1 nM), assay buffer (50 mM Tris at pH 7.7 and 0.1% ascorbic acid) containing pargyline (10 μM), and test compounds (1×10^−10 to 1×10^−4M). Non specific binding was determined in the presence of 100 μM mianserin. After 30 minutes incubation at 37° C., the assay mixture was filtered through a combination of GF-C and GF-B filters, pre-soaked in 1% bovine serum albumin, using a Brandel cell harvester, and were washed three times using ice cold Tris-HCl buffer (50 mM). Radioactivity retained on the filters was determined by liquid scintillation counting. For each test compound, the concentration that inhibited binding of [^3H]mesulergine by 50% was determined using curve fitting software (Prism). Kd values (concentration of mesulergine required to occupy 50% of the receptor binding sites at equilibrium) determined from saturation binding studies were then used to calculate inhibition dissociation constants (Ki) using the following equation: […]

T2 sequence (P41595 whole entry): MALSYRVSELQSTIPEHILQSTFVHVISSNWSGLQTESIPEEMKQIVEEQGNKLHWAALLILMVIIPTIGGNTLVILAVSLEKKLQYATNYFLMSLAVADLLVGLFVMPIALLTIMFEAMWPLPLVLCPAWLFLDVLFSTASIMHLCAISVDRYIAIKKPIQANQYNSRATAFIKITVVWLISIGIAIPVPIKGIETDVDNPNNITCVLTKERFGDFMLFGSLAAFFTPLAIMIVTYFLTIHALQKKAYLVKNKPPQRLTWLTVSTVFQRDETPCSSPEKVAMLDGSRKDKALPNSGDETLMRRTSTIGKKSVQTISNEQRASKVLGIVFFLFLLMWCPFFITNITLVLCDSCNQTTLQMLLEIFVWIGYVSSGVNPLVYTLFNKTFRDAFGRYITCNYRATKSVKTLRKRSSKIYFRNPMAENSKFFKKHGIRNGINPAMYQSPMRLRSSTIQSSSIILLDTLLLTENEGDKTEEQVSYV
T1 sequence (P28223 whole entry): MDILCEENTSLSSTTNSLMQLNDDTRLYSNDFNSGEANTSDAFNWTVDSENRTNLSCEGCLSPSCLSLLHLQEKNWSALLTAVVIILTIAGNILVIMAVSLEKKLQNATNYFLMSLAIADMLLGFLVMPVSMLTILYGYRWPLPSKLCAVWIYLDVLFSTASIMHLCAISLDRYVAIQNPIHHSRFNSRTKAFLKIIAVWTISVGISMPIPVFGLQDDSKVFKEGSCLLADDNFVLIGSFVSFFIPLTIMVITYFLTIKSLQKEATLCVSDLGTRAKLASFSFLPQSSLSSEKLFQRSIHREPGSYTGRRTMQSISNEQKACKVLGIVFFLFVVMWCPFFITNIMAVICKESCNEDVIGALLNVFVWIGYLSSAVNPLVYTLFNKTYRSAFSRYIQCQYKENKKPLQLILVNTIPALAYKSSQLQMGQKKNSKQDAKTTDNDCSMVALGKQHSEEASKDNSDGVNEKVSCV

Row | SMILES | Ki [1] | Ki [2] | Ki [3]
1 | COc1ccc(-c2c[nH]c(NC(C)=O)n2)c2ccccc12 [Compound 103B, N-[4-(4-Methoxy-naphthalen-1-yl)-1H-imidazol-2-yl]-acetamide] | > 10000 nM | < 1000 nM | > 10000 nM
2 | Cc1cc(Nc2cccc(O)c2)nc(N)n1 [Compound 2Q, 3-(2-amino-6-methyl-pyrimidin-4-ylamino)-phenol hydrochloride] | > 1000 nM | < 1000 nM | > 1000 nM
3 | Cc1cc(Nc2cc(Br)ccc2O)nc(N)n1 [Compound 2O, 2-(2-amino-6-methyl-pyrimidin-4-ylamino)-4-bromo-phenol hydrochloride] | > 1000 nM | < 1000 nM | > 100 nM
4 | Cc1cc(Nc2ccc(I)cc2)nc(N)n1 [Compound 2E, N^4-(4-iodo-phenyl)-6-methyl-pyrimidine-2,4-diamine hydrochloride] | > 10000 nM | < 1000 nM | > 316 nM
5 | COc1ccc(-c2cccc(C)c2)cc1-c1cnc(N)o1 [Compound 224C, 5-(4-Methoxy-3′-methyl-biphenyl-3-yl)-oxazol-2-ylamine, trifluoroacetic acid] | > 1000 nM | < 1000 nM | > 1000 nM
6 | CC(=O)Nc1nc(-c2cccc3ccccc23)c(C)[nH]1 [Compound 103I, N-(5-Methyl-4-naphthalen-1-yl-1H-imidazol-2-yl)-acetamide] | > 1000 nM | < 100 nM | > 1000 nM
7 | Cc1cccc(-c2cccc(-c3cnc(N)o3)c2)c1 [Compound 209B, 5-(3′-Methyl-biphenyl-3-yl)-oxazol-2-ylamine] | > 10000 nM | < 316 nM | > 10000 nM
8 | Cc1cc(Nc2ccc(F)c(F)c2)nc(N)n1 [Compound 2M, N^4-(3,4-difluoro-phenyl)-6-methyl-pyrimidine-2,4-diamine hydrochloride] | > 1000 nM | < 1000 nM | > 1000 nM
9 | Cc1c(-c2cnc(N)[nH]2)sc2ccccc12 [Compound 104O, 4-(3-Methyl-benzo[b]thiophen-2-yl)-1H-imidazol-2-ylamine] | > 10000 nM | < 316 nM | > 316 nM
10 | Cc1cc(Nc2cccc(F)c2)nc(N)n1 [Compound 2AN, N^4-(3-fluoro-phenyl)-6-methyl-pyrimidine-2,4-diamine] | > 10000 nM | < 1000 nM | > 1000 nM
11 | Nc1nccc(Nc2ccc(I)cc2)n1 [Compound 16, N″-(4-Iodo-phenyl)-pyrimidine-2,4-diamine] | > 1000 nM | < 1000 nM | > 1000 nM
12 | CC(=O)Nc1nc(-c2cccc3ccccc23)c[nH]1 [Compound 103N, N-(4-Naphthalen-1-yl-1H-imidazol-2-yl)-acetamide] | > 10000 nM | < 1000 nM | > 10000 nM
13 | Cc1cc(Nc2ccc(Oc3ccccc3)cc2)nc(N)n1 [Compound 2AE, 6-methyl-N^4-(4-phenoxy-phenyl)-pyrimidine-2,4-diamine hydrochloride] | > 10000 nM | < 100 nM | > 316 nM
14 | Cc1cc(Nc2cccc(Oc3ccccc3)c2)nc(N)n1 [Compound 2AD, 6-methyl-N^4-(3-phenoxy-phenyl)-pyrimidine-2,4-diamine hydrochloride] | > 316 nM | < 1000 nM | > 1000 nM
15 | Cc1cc(Nc2cc(Br)ccc2C)nc(N)n1 [Compound 2AP, N^4-(5-bromo-2-methyl-phenyl)-6-methyl-pyrimidine-2,4-diamine] | > 1000 nM | < 1000 nM | > 1000 nM
16 | Cc1cccc(-c2cccc(Nc3cc(C)nc(N)n3)c2)c1 [Compound 10E, 6-methyl-N^4-(3′-methyl-biphenyl-3-yl)-pyrimidine-2,4-diamine trifluoroacetic acid] | > 100 nM | < 100 nM | > 100 nM
17 | Nc1nc(-c2ccc(F)c3ccccc23)c[nH]1 [Compound 104F, 4-(4-Fluoro-naphthalen-1-yl)-1H-imidazol-2-ylamine] | > 1000 nM | < 100 nM | > 1000 nM
18 | COc1ccc(-c2c[nH]c(N)n2)c2ccccc12 [Compound 104B, 4-(4-Methoxy-naphthalen-1-yl)-1H-imidazol-2-ylamine] | > 3160 nM | < 100 nM | > 3160 nM
19 | Cc1cc(Nc2ccc3ncsc3c2)nc(N)n1 [Compound 2AB, N^4-benzothiazol-6-yl-6-methyl-pyrimidine-2,4-diamine hydrochloride] | > 1000 nM | < 1000 nM | > 1000 nM
20 | Cc1cc(Nc2cc(Br)ccc2Br)nc(N)n1 [Compound 2AJ, N^4-(2,5-dibromo-phenyl)-6-methyl-pyrimidine-2,4-diamine trifluoroacetic acid] | > 1000 nM | < 100 nM | > 316 nM
21 | Nc1nc(-c2cccc3c(Br)cccc23)c[nH]1 [Compound 104H, 4-(5-Bromo-naphthalen-1-yl)-1H-imidazol-2-ylamine] | > 316 nM | < 100 nM | > 100 nM
22 | Cc1nc(N)oc1-c1cccc(-c2ccccc2)c1 [Compound 219A, 5-biphenyl-3-yl-4-methyl-oxazol-2-ylamine, trifluoroacetic acid] | > 1000 nM | < 316 nM | > 1000 nM
23 | Cc1cc(Oc2cccc(-c3ccccc3)c2)nc(N)n1 [Compound 4C, 4-(biphenyl-3-yloxy)-6-methylpyrimidin-2-ylamine] | > 10000 nM | < 1000 nM | > 10000 nM
24 | CC(=O)Nc1ccc(Nc2cc(C)nc(N)n2)cc1 [Compound 2V, N-[4-(2-amino-6-methyl-pyrimidin-4-ylamino)-phenyl]-acetamide hydrochloride] | > 1000 nM | < 1000 nM | > 1000 nM

Reference: patent publication US20090018150A1, “5-Ht2b Receptor Antagonists” (ASTERAND UK LIMITED, priority 2003, published 2009)
